“Also recorded” adds a separate entry of the source. No end group written: not given here.
Assays:
[1] = Isothermal titration calorimetry, SDS demicellization in presence of A8-35; type: physicochemical; settings: 25°C, 10 mM phosphate, 150 mM NaCl, pH 7.4
Description: ITC experiments were performed on a VP-ITC (GE Healthcare) at 25°C in 10 mM phosphate buffer (150 mM NaCl, pH 7.4). For demicellization experiments, 5-µL aliquots containing both, SDS at a concentration well above its CMC (10-13 mM) as well as A8-35 at concentrations of 5-140 µM, were injected into the sample cell containing the same amphipol concentration but no SDS. Time spans between injections were chosen long enough to allow for complete re-equilibration. Baseline subtraction and peak integration were accomplished using NITPIC [32], and the resulting isotherms were analyzed by nonlinear least-squares fitting in a spreadsheet program.
Thermal denaturation of MPs often leads to irreversible aggregation of the MP, and guanidine hydrochloride and urea, which are frequently used in unfolding studies involving soluble proteins, do typically not denature the TM regions of MPs. This is why the thermodynamic stability of integral MPs within membrane-mimetic systems is often assessed by titrating increasing concentrations of the anionic detergent SDS to MPs dissolved in a mild detergent, such as DDM [24], [40]-[44]. […] At low APol concentrations, the isotherms thus obtained resembled those measured in SDS demicellization experiments in the absence of APol. […]
Figure 5 Interactions of SDS with A8-35 monitored by isothermal titration calorimetry. […]

[2] = octylglucoside with A8-35 and other amphipols; ref [13]; cited from earlier work
[3] = biological target: the molecule itself; test: FRET or BRET; steady-state FRET of FL- and TAMRA-labelled peptide (0.25 µM each, 0.5 µM total) in Amphipol A8-35 at 5 to 75 µM; 10 mM HEPES pH 7.4, 150 mM NaCl; 25°C; apparent constants; dimer to monomers
[4] = biological target: the molecule itself; test: FRET or BRET; steady-state FRET at 0.5 µM peptide and 20 µM A8-35 (40:1) with increasing SDS added to preformed APol/GpA complexes; 25°C after incubation at 37°C; apparent constants; dimer to monomers
[5] = biological target: the molecule itself; test: FRET or BRET; energy transfer at different acceptor mole ratios at constant total peptide concentration, in 5 µM and 50 µM A8-35

CCCCCCCCCCCCOS(=O)(=O)[O-].[Na+] [SDS, sodium dodecyl sulfate]
mixing behavior of SDS with A8-35 ([1]; qualitative): follows a more complex pattern; also recorded: strongly non-ideal
nonideality parameters of SDS/A8-35 mixing ([1]; regular mixing model, intermediate SDS contents, A8-35 5-140 µM): 3–4 RT

CCCCCCCCO[C@@H]1O[C@H](CO)[C@@H](O)[C@H](O)[C@H]1O [octylglucoside]
mixing behavior with amphipols [2]: nearly ideal mixing behavior

B1: GpA TM domain peptide (residues 69–101 of human glycophorin A) (peptide)
peptide: SEPEITLIIFGVMAGVIGTILLISYGIRRLIKK
modifications: also: N-terminal label: fluorescein or TAMRA
notes: glycophorin A, human, transmembrane domain, residues 69-101; Self-association is measured by FRET between the FL-labelled and the TAMRA-labelled copy of the same peptide, mixed in equal concentrations (0.25 µM each); both are written as one molecule; also called GpA TM peptide; GpA TM helix; source: synthetic peptide (custom-synthesized, Peptide Specialty Laboratories, Heidelberg)
Kd [3]: < 300 nM
fold increase of KD (SDS exceeding 1.5 mM against no SDS) [4]: ~10 fold
stoichiometry N [5]: 2
